Starred links: 1 amine or outer side, 2 acyl side, 3 side chain; linkers in the order of their positions; H or OH if unused. Non-standard residues stand in square brackets, D forms with d. Residues, ends and D or L forms follow the SMILES beside them. ξ: configuration not given here. Ala(9-anthryl) = N[C@@H](Cc1c2ccccc2cc2ccccc12)C(=O)O; Pro(4R-Bn) = O=C(O)[C@@H]1C[C@@H](Cc2ccccc2)CN1; NMePhg = CN[C@H](C(=O)O)c1ccccc1; Cysteamide = C(CS[*:3])N[*:1]; Chg = N[C@H](C(=O)O)C1CCCCC1; Phg = N[C@H](C(=O)O)c1ccccc1; Tle = CC(C)(C)[C@H](N)C(=O)O; ξDisc = O=C(O)C1NCc2ccccc21; NMeA = CN[C@@H](C)C(=O)O

From patent US9556229B2, “Modification of peptides using a bis(thioether)arylbridge approach” (priority 2012, dated 2017) come the findings set out here.

In test [1] the test system is MDA-MB-231 breast cancer cell line.
Test [2] concerns MCF-7 breast cancer cell line. The experiment in a line: Cell viability, MCF-7, PrestoBlue assay. The following applies: NA = not active. The test is classed as cell-based. The procedure:
To test our theory we decided to focus on Smac multimers. First, we synthesized a small library of Smac compounds (see, Tables 3 and 4) varying in position 4 substituents having general structure N-MeAla-Tle-4-(trans-Bn)-Pro-Xaa-NHCH2CH2—SH (SEQ ID NO:38), which were tested in vitro using MDA-MB-231 and MCF-7 breast cancer cell lines and PrestoBlue™ assay (Invitrogen).

For `CN[C@@H](C)C(=O)N[C@H](C(=O)N1C[C@H](Cc2ccccc2)C[C@H]1C(=O)N[C@H](C(=O)NCCS)c1ccccc1)C(C)(C)C` [SMAC1, N^MeAla-Tle-(4-Bzl)Pro-Phg-NHCH2CH2SH] (H-[NMeA][Tle][Pro(4R-Bn)][Phg]-Cysteamide; N-terminus assumed), the EC50 (commonly the concentration that produces a half-maximal response) turned out to be 17.2 ± 6.4 µM in test [1] and 31.2 ± 1.4 µM in test [2].

In the case of `CN[C@@H](C)C(=O)N[C@H](C(=O)N1C[C@H](Cc2ccccc2)C[C@H]1C(=O)N(C)[C@H](C(=O)NCCS)c1ccccc1)C(C)(C)C` [SMAC2, N^MeAla-Tle-(4-Bzl)Pro-N^MePhg-NHCH2CH2SH] (H-[NMeA][Tle][Pro(4R-Bn)][NMePhg]-Cysteamide; N-terminus assumed), the results for the EC50 in test [1] and in test [2] were 23.8 ± 4.5 µM and 43.6 ± 1.6 µM, respectively.

The compound `CN[C@@H](C)C(=O)N[C@H](C(=O)N1C[C@H](Cc2ccccc2)C[C@H]1C(=O)NCc1ccc(CC(=O)NCCS)cc1)C(C)(C)C` [SMAC3, N^MeAla-Tle-(4-Bzl)Pro-Amp-NHCH2CH2SH] showed an EC50 in test [1] of 14.3 ± 3.2 µM.

On to `CN[C@@H](C)C(=O)N[C@H](C(=O)N1C[C@H](Cc2ccccc2)C[C@H]1C(=O)N1Cc2ccccc2C1C(=O)NCCS)C(C)(C)C` (stereo partly drawn) [SMAC4, N^MeAla-Tle-(4-Bzl)Pro-Disc-NHCH2CH2SH] (H-[NMeA][Tle][Pro(4R-Bn)][ξDisc]-Cysteamide; N-terminus assumed), for which the values for the EC50 in test [1] and in test [2] were 47.1 ± 15.9 µM and 41.6 ± 3.7 µM, respectively.

For `CN[C@@H](C)C(=O)N[C@H](C(=O)N1C[C@H](Cc2ccccc2)C[C@H]1C(=O)N1c2ccccc2C[C@H]1C(=O)NCCS)C(C)(C)C` [SMAC5, N^MeAla-Tle-(4-Bzl)Pro-Idc-NHCH2CH2SH], the EC50 is 68.3 ± 4 µM in test [1] and 477 ± 48.4 µM in test [2].

As to `CN[C@@H](C)C(=O)N[C@H](C(=O)N1C[C@H](Cc2ccccc2)C[C@H]1C(=O)N[C@H](C(=O)NCCS)C1CCCCC1)C(C)(C)C` [SMAC6, N^MeAla-Tle-(4-Bzl)Pro-Chg-NHCH2CH2SH] (H-[NMeA][Tle][Pro(4R-Bn)][Chg]-Cysteamide; N-terminus assumed), the EC50 in test [1] was found to be 9.8 ± 3.1 µM; in test [2], 31.2 ± 2.1 µM.

Regarding `CN[C@@H](C)C(=O)N[C@H](C(=O)N1C[C@H](Cc2ccccc2)C[C@H]1C(=O)NC[C@H]1CC[C@H](C(=O)NCCS)CC1)C(C)(C)C` [SMAC7, N^MeAla-Tle-(4-Bzl)Pro-Amc-NHCH2CH2SH], the EC50 in test [1] was 91.8 ± 16.3 µM; in test [2], 86.3 ± 10.5 µM.

With `CN[C@@H](C)C(=O)N[C@H](C(=O)N1C[C@H](Cc2ccccc2)C[C@H]1C(=O)N[C@@H](Cc1ccccc1)C(=O)NCCS)C(C)(C)C` [SMAC8, N^MeAla-Tle-(4-Bzl)Pro-Phe-NHCH2CH2SH], the EC50 in test [1] was 34.3 ± 6.7 µM; in test [2], 33.3 ± 1.5 µM.

`CN[C@@H](C)C(=O)N[C@H](C(=O)N1C[C@H](Cc2ccccc2)C[C@H]1C(=O)N[C@@H](Cc1cccc2ccccc12)C(=O)NCCSCc1ccc(CSCCNC(=O)[C@H](Cc2cccc3ccccc23)NC(=O)[C@@H]2C[C@@H](Cc3ccccc3)CN2C(=O)[C@@H](NC(=O)[C@H](C)NC)C(C)(C)C)cc1)C(C)(C)C` [SMAC14-2X, (N^MeAla-Tle-(4-Bzl)Pro-^1Nal-NHCH2CH2S)2—(CH2)2Ph] gave an EC50 in test [2] of 3.5 ± 1.6 µM.

Consider `CN[C@@H](C)C(=O)N[C@H](C(=O)N1C[C@H](Cc2ccccc2)C[C@H]1C(=O)N[C@@H](Cc1ccc(-c2ccccc2)cc1)C(=O)NCCSCc1ccc(CSCCNC(=O)[C@H](Cc2ccc(-c3ccccc3)cc2)NC(=O)[C@@H]2C[C@@H](Cc3ccccc3)CN2C(=O)[C@@H](NC(=O)[C@H](C)NC)C(C)(C)C)cc1)C(C)(C)C` [SMAC17-2X, (N^MeAla-Tle-(4-Bzl)Pro-Bip-NHCH2CH2S)2—(CH2)2Ph], for which, in test [2], the EC50 worked out at 1.7 ± 0.4 µM.

As for `CN[C@@H](C)C(=O)N[C@H](C(=O)N1C[C@H](Cc2ccccc2)C[C@H]1C(=O)N[C@@H](Cc1c2ccccc2cc2ccccc12)C(=O)NCCS)C(C)(C)C` [SMAC18, N^MeAla-Tle-(4-Bzl)Pro-Ant-NHCH2CH2SH] (H-[NMeA][Tle][Pro(4R-Bn)][Ala(9-anthryl)]-Cysteamide), the EC50 in test [1] worked out at 17.3 ± 1 µM.
